Test system: Coptotemes formosanus
Assay: Indoor testing of termiticidal effect of treated soil (Japan Wood Preserving Association standard number 13, 1992)
Format: in vivo
Procedure: The following tests (test numbers 1 to 16) were carried out based on testing methods and qualitative standards (I) for termiticidal effects of termiticide for soil treating (Japan Wood Preserving Association standard number 13, 1992). In the tests using entomopathogenic nematodes, operation of diffusive volatilization was not carried out.
The bottom portions of these two glass bottles are connected with a glass tube (3) of 15 mm in diameter and 100 mm in length.
In one of the glass bottles of the testing container, about 60 g of a non-treated soil (5) having an adjusted moisture content of about 25% is placed, and in the other glass bottle, about 3 g of Japanese red pine wood blocks are placed, and in the central 50 mm portion of the glass tube, a treated soil for testing (6) is placed.
In the glass bottle containing a non-treated soil, Coptotemes formosanus taken out from a nest was placed, and the upper portions of the glass bottles were covered with aluminum foil. Cumulative mortality rates after 0, 3, 5, 7, 10 and 14 days, respectively, were examined. […]

[1] = 10 ppm of insect-growth regulator singly in treated soil, 0 days elapsed
[2] = 10 ppm of insect-growth regulator singly in treated soil, 3 days elapsed
[3] = 10 ppm of insect-growth regulator singly in treated soil, 5 days elapsed
[4] = 10 ppm of insect-growth regulator singly in treated soil, 7 days elapsed
[5] = 10 ppm of insect-growth regulator singly in treated soil, 10 days elapsed
[6] = 10 ppm of insect-growth regulator singly in treated soil, 14 days elapsed
[7] = 20 ppm of insect-growth regulator singly in treated soil, 0 days elapsed
[8] = 20 ppm of insect-growth regulator singly in treated soil, 3 days elapsed
[9] = 20 ppm of insect-growth regulator singly in treated soil, 5 days elapsed
[10] = 20 ppm of insect-growth regulator singly in treated soil, 7 days elapsed
[11] = 20 ppm of insect-growth regulator singly in treated soil, 10 days elapsed
[12] = 20 ppm of insect-growth regulator singly in treated soil, 14 days elapsed
[13] = 50 ppm of insect-growth regulator singly in treated soil, 0 days elapsed
[14] = 50 ppm of insect-growth regulator singly in treated soil, 3 days elapsed
[15] = 50 ppm of insect-growth regulator singly in treated soil, 5 days elapsed
[16] = 50 ppm of insect-growth regulator singly in treated soil, 7 days elapsed
[17] = 50 ppm of insect-growth regulator singly in treated soil, 10 days elapsed
[18] = 50 ppm of insect-growth regulator singly in treated soil, 14 days elapsed

| Compound | Cumulative mortality rate (%) after a lapse of days [1] | Cumulative mortality rate (%) after a lapse of days [2] | Cumulative mortality rate (%) after a lapse of days [3] | Cumulative mortality rate (%) after a lapse of days [4] | Cumulative mortality rate (%) after a lapse of days [5] | Cumulative mortality rate (%) after a lapse of days [6] | Cumulative mortality rate (%) after a lapse of days [7] | Cumulative mortality rate (%) after a lapse of days [8] | Cumulative mortality rate (%) after a lapse of days [9] | Cumulative mortality rate (%) after a lapse of days [10] | Cumulative mortality rate (%) after a lapse of days [11] | Cumulative mortality rate (%) after a lapse of days [12] | Cumulative mortality rate (%) after a lapse of days [13] | Cumulative mortality rate (%) after a lapse of days [14] | Cumulative mortality rate (%) after a lapse of days [15] | Cumulative mortality rate (%) after a lapse of days [16] | Cumulative mortality rate (%) after a lapse of days [17] | Cumulative mortality rate (%) after a lapse of days [18] |
| --- | --- | --- | --- | --- | --- | --- | --- | --- | --- | --- | --- | --- | --- | --- | --- | --- | --- | --- |
| O=C(NC(=O)c1c(F)cccc1F)Nc1ccc(Cl)cc1 [Diflubenzuron, N-[[(4-chlorophenyl)amino]carbonyl]-2,6-difluorobenzamide] | 0% | 10% | 15% | 20% | 40% | 50% | 0% | 25% | 35% | 40% | 50% | 60% | 0% | 35% | 45% | 50% | 55% | 70% |
| O=C(NC(=O)c1c(F)cccc1F)Nc1cc(Cl)c(F)c(Cl)c1F [Teflubenzuron, N-[[(3,5-dichloro-2,4-difluorophenyl)amino]carbonyl]-2,6-difluorobenzamide] | 0% | 20% | 25% | 30% | 30% | 55% | 0% | 30% | 45% | 50% | 60% | 70% | 0% | 40% | 60% | 70% | 80% | 90% |
| O=C(NC(=O)c1c(F)cccc1F)Nc1ccc(OC(F)(F)C(F)OC(F)(F)F)c(Cl)c1 (centres unmarked) [novaluron, N-[[[3-chloro-4-(1,1,2-trifluoro-2-trifluoromethoxyethoxy)phenyl]amino]carbonyl]-2,6-difluorobenzamide] | 0% | 20% | 30% | 35% | 40% | 80% | 0% | 30% | 45% | 100% | – | – | 0% | 40% | 60% | 100% | – | – |

From US20030157062A1, “Method for exterminating termites” (priority 2000, published 2003)
